# Reference: article PMC10747736, “In Vitro Activities of Dithiocarbamate Derivatives against Echinococcus multilocularis Metacestode Vesicles” (Tropical Medicine and Infectious Disease, 2023)
# Tested on: E. multilocularis metacestode vesicles
# Test: PGI assay (damage marker release) with metacestode vesicles
# Type: cell-based, Echinococcus multilocularis
# Parameters: key: Active: Compounds were considered active when they reached 20% of PGI release relative to Triton X-100; Not active: Compounds were considered active when they reached 20% of PGI release relative to Triton X-100
# Conditions: overview screen at 10 µM, five days, 20% cut-off relative to Triton X-100
# Protocol: In order to screen disulfiram and dithiocarbamate derivatives as potential new drug candidates, we used an in vitro screening cascade, in which the compounds were first screened against E. multilocularis metacestode vesicles via the phosphoglucose isomerase (PGI) assay, in which metacestode vesicle damage is assessed by the measurement of damage marker (PGI) release (Figure 1, see Section 2.6). […] Subsequently, compounds were assessed in concentration series on E. multilocularis metacestode vesicles via the PGI assay and on GL cell cultures via the CellTiter-Glo assay (see Section 2.9). The testing on mammalian cells as well as metacestode vesicles and GL cell cultures allowed the identification of a potential therapeutic window in vitro.
# PGI assays were conducted at the University of Bern as described previously. In short, two-to-three-month-old metacestode vesicles of two to four mm in diameter were purified using 2% sucrose followed by several washing steps in PBS. Purified metacestode vesicles were mixed with two volumes of DMEM without phenol red containing penicillin (100 U/mL) and streptomycin (100 µg/mL). […] Samples were measured on an EnSpire multilabel reader (Perkin Elmer, Waltham, MA, USA). […] Samples were measured on a HIDEX Sense microplate reader (Hidex, Turku, Finland). […]
compound,measurement,setting,value
CCN(CC)C(=S)SSC(=S)N(CC)CC [Disulfiram],PGI assay (active / not active),,Not active
same,PGI assay (active / not active),listed as disulfiram,showed no effect
